Measurements from PubChem BioAssay AID330 (DTP/NCI, 2004).
Values joined by “and” are separate entries in the source; they are usually repeats but may differ in a detail not shown here. Equal values may be shown once. Inconclusive results and toxic doses are left out.

System: P388 leukemia ip, CD2F1 mice, survival T/C
Test: NCI In Vivo Anticancer Drug Screen. Data for tumor model P388 Leukemia (intraperitoneal) in CD2F1 (CDF1) mice
Details: endpoint: median survival time, higher = longer survival
How it was run: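 Mice carrying the transplanted tumor received test compound or vehicle. Survival was recorded in each group, and the value is the treated-group measurement divided by that of the vehicle-treated control group.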

[1] = dose: 50.0 mg/kg/injection, schedule: Q01DX009 (ip), vehicle: Klucel (hydroxypropylcellulose) (HPC)
[2] = dose: 100.0 mg/kg/injection, schedule: Q01DX009 (ip), vehicle: Klucel (hydroxypropylcellulose) (HPC)
[3] = dose: 200.0 mg/kg/injection, schedule: Q01DX009 (ip), vehicle: Klucel (hydroxypropylcellulose) (HPC)
[4] = dose: 6.25 mg/kg/injection, schedule: Q01DX009 (ip), vehicle: saline with Tween-80
[5] = dose: 12.5 mg/kg/injection, schedule: Q01DX009 (ip), vehicle: saline with Tween-80
[6] = dose: 25.0 mg/kg/injection, schedule: Q01DX009 (ip), vehicle: saline with Tween-80
[7] = dose: 100.0 mg/kg/injection, schedule: Q04DX003 (ip), vehicle: saline with Tween-80
[8] = dose: 200.0 mg/kg/injection, schedule: Q04DX003 (ip), vehicle: saline with Tween-80
[9] = dose: 25.0 mg/kg/injection, schedule: Q04DX003 (ip), vehicle: saline with Tween-80
[10] = dose: 50.0 mg/kg/injection, schedule: Q04DX003 (ip), vehicle: saline with Tween-80
[11] = dose: 50.0 mg/kg/injection, schedule: Q01DX005 (ip), vehicle: saline with Tween-80
[12] = dose: 100.0 mg/kg/injection, schedule: Q01DX005 (ip), vehicle: saline with Tween-80
[13] = dose: 200.0 mg/kg/injection, schedule: Q01DX005 (ip), vehicle: saline with Tween-80
[14] = dose: 60.0 mg/kg/injection, schedule: Q01DX005 (ip), vehicle: Klucel (hydroxypropylcellulose) (HPC)
[15] = dose: 120.0 mg/kg/injection, schedule: Q01DX005 (ip), vehicle: Klucel (hydroxypropylcellulose) (HPC)
[16] = dose: 240.0 mg/kg/injection, schedule: Q01DX005 (ip), vehicle: Klucel (hydroxypropylcellulose) (HPC)

Cc1ccc(N=Cc2ccccc2O)c(Br)c1
T/C [1]: 88 % of control
T/C [2]: 89 % of control
T/C [3]: 98 % of control

[Cu+2].[NH-]CC1CCCC[N-]1.[NH-]CC1CCCC[N-]1.[O-][Cl+3]([O-])([O-])O (stereo not given)
T/C [4]: 103 % of control
T/C [5]: 100 % of control and 96 % of control
T/C [6]: 107 % of control

O=[N+]([O-])c1cc2[nH]cnc2c([N+](=O)[O-])c1Nc1ccccc1
T/C [7]: 102 % of control
T/C [8]: 93 % of control
T/C (dose: 400.0 mg/kg/injection, schedule: Q04DX003 (ip), vehicle: saline with Tween-80): 101 % of control

Cc1cc(C)nc(NC(N)=NCCc2ccccc2)n1
T/C (dose: 12.5 mg/kg/injection, schedule: Q04DX003 (ip), vehicle: saline with Tween-80): 104 % of control
T/C [9]: 100 % of control
T/C [10]: 100 % of control

O=C(CNC(=O)NCc1ccco1)NNC(=O)Nc1ccc(Cl)c([N+](=O)[O-])c1
T/C (dose: 60.0 mg/kg/injection, schedule: Q01DX005 (ip), vehicle: saline with Tween-80): 95 % of control
T/C (dose: 120.0 mg/kg/injection, schedule: Q01DX005 (ip), vehicle: saline with Tween-80): 94 % of control
T/C (dose: 240.0 mg/kg/injection, schedule: Q01DX005 (ip), vehicle: saline with Tween-80): 97 % of control

Cc1cc([N+](=O)[O-])cc(Br)c1N
T/C (dose: 100.0 mg/kg/injection, schedule: Q01DX001 (ip), vehicle: saline with Tween-80): 100 % of control
T/C (dose: 200.0 mg/kg/injection, schedule: Q01DX001 (ip), vehicle: saline with Tween-80): 95 % of control
T/C (dose: 400.0 mg/kg/injection, schedule: Q01DX001 (ip), vehicle: saline with Tween-80): 95 % of control

COC1/C=C/OC2(C)Oc3c(C)c(O)c4c(O)c(c(C5OCCO5)c(O)c4c3C2=O)NC(=O)/C(C)=C\C=C\C(C)C(O)C(C)C(O)C(C)C(OC(C)=O)C1C (stereo not given)
T/C [9]: 96 % of control
T/C [10]: 96 % of control
T/C [7]: 96 % of control
T/C [8]: 104 % of control

C[CH2][Sn]([CH2]C)([O]C(C)=O)[O][Sn]([CH2]C)([CH2]C)[O]C(C)=O
T/C (dose: 6.25 mg/kg/injection, schedule: Q01DX009 (ip), vehicle: saline): 155 % of control

CCB(CC)OC1OC(C2COB(CC)O2)C2OB(CC)OC12 (stereo not given)
T/C [11]: 103 % of control
T/C [12]: 95 % of control
T/C [13]: 101 % of control

CN=C(N)N/N=C/c1ccc(-c2ccccc2)cc1
T/C (dose: 25.0 mg/kg/injection, schedule: Q04DX002 (ip), vehicle: saline): 105 % of control
T/C (dose: 50.0 mg/kg/injection, schedule: Q04DX002 (ip), vehicle: saline): 111 % of control

COC(=O)C1C[S][Sn]2([NH]1)[NH]C(C(=O)OC)C[S]2 (stereo not given)
T/C (dose: 50.0 mg/kg/injection, schedule: Q01DX005 (ip), vehicle: Klucel (hydroxypropylcellulose) (HPC)): 108 % of control
T/C (dose: 100.0 mg/kg/injection, schedule: Q01DX005 (ip), vehicle: Klucel (hydroxypropylcellulose) (HPC)): 106 % of control
T/C (dose: 200.0 mg/kg/injection, schedule: Q01DX005 (ip), vehicle: Klucel (hydroxypropylcellulose) (HPC)): 101 % of control

CC1(C)C(C(=O)/C=C2\Nc3ccccc3C2(C)C)=Nc2ccccc21
T/C [14]: 102 % of control
T/C [15]: 91 % of control
T/C [16]: 98 % of control

COC(=O)C1(CC(=O)C2CC2)NC(=S)NC(=O)C1C#N (stereo not given)
T/C [14]: 103 % of control
T/C [15]: 100 % of control
T/C [16]: 100 % of control

CCc1nc(-c2ccccc2)nc2c1nc(-c1ccccc1)n2Nc1ccccc1
T/C [11]: 90 % of control
T/C [12]: 96 % of control
T/C [13]: 91 % of control

OCN(CO)c1nc(CCC(Br)(Br)Br)nc(N(CO)CO)n1
T/C (dose: 12.5 mg/kg/injection, schedule: Q01DX009 (ip), vehicle: distilled water + Tween-80): 104 % of control
T/C (dose: 25.0 mg/kg/injection, schedule: Q01DX009 (ip), vehicle: distilled water + Tween-80): 98 % of control
T/C (dose: 50.0 mg/kg/injection, schedule: Q01DX009 (ip), vehicle: distilled water + Tween-80): 98 % of control
T/C (dose: 100.0 mg/kg/injection, schedule: Q01DX009 (ip), vehicle: distilled water + Tween-80): 89 % of control
T/C (dose: 200.0 mg/kg/injection, schedule: Q01DX009 (ip), vehicle: distilled water + Tween-80): 98 % of control

COc1ccc(NS(=O)(=O)c2ccc(C)cc2)c([N+](=O)[O-])c1
T/C [1]: 116 % of control
T/C [2]: 115 % of control
T/C [3]: 115 % of control

C=C1CC[C@H]2C(C)=CC[C@@H]3[C@H](OC(=O)[C@H]3CN(C)C)[C@@H]12
T/C (dose: 100.0 mg/kg/injection, schedule: Q01DX001 (ip), vehicle: saline): 98 % of control
T/C (dose: 200.0 mg/kg/injection, schedule: Q01DX001 (ip), vehicle: saline): 104 % of control
T/C (dose: 400.0 mg/kg/injection, schedule: Q01DX001 (ip), vehicle: saline): 105 % of control

O.Oc1ccccc1C=NCCC[N-]CCCN=Cc1ccccc1O.[Co]
T/C (dose: 3.13 mg/kg/injection, schedule: Q01DX009 (ip), vehicle: saline with Tween-80): 102 % of control
T/C [4]: 102 % of control
T/C [5]: 123 % of control
T/C [6]: 100 % of control and 115 % of control

O=[N+]([O-])c1ccc(SCN2CCCCC2)cc1
T/C (dose: 50.0 mg/kg/injection, schedule: Q01DX009 (ip), vehicle: saline with Tween-80): 104 % of control
T/C (dose: 100.0 mg/kg/injection, schedule: Q01DX009 (ip), vehicle: saline with Tween-80): 104 % of control
T/C (dose: 200.0 mg/kg/injection, schedule: Q01DX009 (ip), vehicle: saline with Tween-80): 118 % of control

S=C1NCC(c2ccc(Cl)cc2)[Se]1 (stereo not given)
T/C (dose: 50.0 mg/kg/injection, schedule: Q01DX009 (ip), vehicle: DMSO): 100 % of control
T/C (dose: 100.0 mg/kg/injection, schedule: Q01DX009 (ip), vehicle: DMSO): 100 % of control

CS/C(=C1/C(=O)N(c2ccccc2)N=C1c1ccc(Cl)cc1)N1CC1
T/C (dose: 25.0 mg/kg/injection, schedule: Q04DX003 (ip), vehicle: Klucel (hydroxypropylcellulose) (HPC)): 96 % of control
T/C (dose: 50.0 mg/kg/injection, schedule: Q04DX003 (ip), vehicle: Klucel (hydroxypropylcellulose) (HPC)): 99 % of control
T/C (dose: 100.0 mg/kg/injection, schedule: Q04DX003 (ip), vehicle: Klucel (hydroxypropylcellulose) (HPC)): 99 % of control
T/C (dose: 200.0 mg/kg/injection, schedule: Q04DX003 (ip), vehicle: Klucel (hydroxypropylcellulose) (HPC)): 99 % of control
T/C (dose: 400.0 mg/kg/injection, schedule: Q04DX003 (ip), vehicle: Klucel (hydroxypropylcellulose) (HPC)): 91 % of control
